Reference: patent US11446276B2, “Extreme low dose THC as a therapeutic and prophylactic agent for Alzheimer's disease” (University of South Florida, priority 2015, dated 2022)
“Also recorded” adds a separate entry of the source.

Assays:
[1] = biological target: T1, Aβ1-40 peptide (Homo sapiens, UniProt P05067); test: ThT assay of Aβ aggregation; type: biochemical; settings: THC 0.25-250 nM; Aβ1-40 1 μM; FIG. 3A
T1 construct: purchased Biomer Technology, Pleasanton, Calif
Experimental: A ThT assay was conducted to examine the interaction between THC and Aβ, as ThT incorporates into Aβ when the amyloid protein aggregates, indicating whether there is a direct interaction between THC and Aβ aggregation.
Hexafluoroisopropanol-(HFIP) pretreated Aβ1-40 peptide (Biomer Technology, Pleasanton, Calif.). THC solution was prepared at concentration of 250 nM, 25 nM, 2.5 nM, and 0.25 nM in thioflavin T (ThT) (1.6 μg/mL dissolved in 20 mM Tris-HCL). The THC-ThT was added into black 96 well plates. Unaggregated Aβ peptide solution was thawed, diluted, and immediately added to wells, making the final concentration of Aβ1-40 at 1 μM. Control groups were setup as: 1) aggregation control; 2) control with ThT buffer only; and 3) Tris-HCl buffer only. Plate was mixed and fluorescence was read at 482 nm with excitation 440 nm with Biotek All-in-One plate reader. Fluorescence was screened for 2 hours with 5-minute intervals.

[2] = tested on: N2a/AβPPswe cells; test: MTT toxicity assay; settings: 36 hours; different concentrations; versus untreated cells; FIG. 9A
Experimental: Cells were plated in 96-well tissue culture plate at 10,000 cells/well, 100 μL/well. 100 μL THC solution was added at 2× concentrations in each well. Control groups are: 1) cells without THC treatment, cells and fresh medium only and 2) blank, wells with medium without cells. All wells were replicated. Wells were incubated for 36 hours. Cell proliferation kit (Roche 11465007001) was then applied for toxicity assay according to the standard protocol. 10 μL of MTT reagent was first added to each well and incubated at 37° C. for 4 hours. Then 100 μL of solubilization solution was added to each well. These were incubated overnight and optical density (OD) values were read at 575 nm. The percentage of cell viability was calculated as: Cell viability %=(OD−OD blank)/(OD control−OD blank).

T1 sequence (P05067 672-711): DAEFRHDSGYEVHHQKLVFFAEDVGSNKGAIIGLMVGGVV

CCCCCc1cc(O)c2c(c1)OC(C)(C)[C@@H]1CCC(C)=C[C@@H]21 [THC, Δ9-tetrahydrocannabinol]
Thioflavin T fluorescence intensity / Aβ aggregation [1]: lowers Aβ aggregation; also recorded: dose-dependent decrease; also recorded: inhibits Aβ40 aggregation
Toxicity (reduction of MTT, OD) [2]: no significant difference from the control; also recorded: no toxicity; also recorded: lack of toxicity
